Source: patent US10562857B2 (AFASCI, Inc., priority 2015, dated 2020)

What was measured:
[1] = tested on: PTZ-induced seizures in mice; experiment: Pentylenetetrazol (PTZ)-induced seizures in mice; assay type: in vivo, mouse; settings: for latency to seizures / fatality latency / fatality rate: 30 mg/kg I.P., PTZ 40 mg/kg I.P.; for fatality latency / fatality rate: 20 min cutoff
Experimental: FIG. 10. […] Sixty minutes (min) prior to receiving PTZ (40 mg/kg, I.P.), each mouse was pretreated with either an Example compound, ML218, Z944 or vehicle (2% DMSO in 0.5% HPC). Fatality rate (%) of mice in each group that dies within the 20 minutes observation period—was calculated. Both fatality rate and latency (data not shown) to death were used to evaluate the Example compound's ability to prevent death resulting from PTZ-induced seizures. A cutoff of 20 minutes was set for observational and statistical analysis purposes.
It is well known that antiepileptics, e.g. carbamazepine, lamotrigine and gabapentin are used for the treatment of neuropathic pain (Xie et al., 1995, Caviedes and Herranz, 2001). T-channel overactivation is involved in the generation of seizure activity (Huguenard, 1998, Cribbs et al., 2000, Perez-Reyes et al., 2009, Perez-Reyes, 2010). […] Fatality latency and rate—the percentage (%) of mice in each treatment group that died within a 20 minute cutoff of the observational period, were recorded and calculated. Averaged fatality latency and rate of each treatment group was used to evaluate the Example compound's ability to either prevent or delay the onset of PTZ-induced seizures and death.

Cav3.3 = target: T1, Cav3.3 (Homo sapiens, UniProt Q9P0X4); experiment: Whole-cell patch clamp of T-type Cav3.3 channel expressed in HEK293 cells; assay type: cell-based; settings: Table 2
T1 construct: expressed in transfected cells; host or cells: HEK-293, tetracycline inducible expression system (Invitrogen)
Experimental: Cav3.1, Cav3.2 or Cav3.3 channels were expressed in human embryonic kidney (HEK)-293 cells using a tetracycline inducible expression system (Invitrogen). Cells were maintained in 25 cm^2 tissue culture flasks at 37° C., 5% CO2, and 100% relative humidity in D-MEM/F12 (Dulbecco's Modified Eagle Medium/Nutrient Mixture F-12; Gibco) supplemented with fetal bovine serum (FBS, 10% v/v), sodium pyruvate (0.5 mM, Gibco), penicillin-streptomycin (100 U/mL, 100 μg/mL) and Geneticin® Selective antibiotic (G418; 0.5 mg/mL). Cells were detached from the flask base using a non-enzymatic cell dissociation solution (Cellstripper, Corning), removed and re-seeded on to poly-D-lysine coated glass coverslips in 35 mm dishes.
Whole-cell voltage clamp recordings were performed on rat or mouse DRG neurons within 2 days after acutely dissociation or cultured HEK293 cells expressing T-type channels (encoded by Cav3.1, Cav3.2 or Cav3.3 channels). All experiments were performed at room temperature (around 21° C.). Whole-cell currents were recorded using a MultiClamp 700B amplifier and analyzed offline with pCLAMP10.4 software (Molecular Devices, LLC, Sunnyvale Calif., USA). […] Since the sodium ions were absent in the external solution, tetrodoctoxin was not needed. Calcium currents were recorded at a holding potential of −100 mV and then depolarized to −30 mV for 100 ms to activate either Cav3.1, Cav3.2, or Cav3.3 expressed in HEK cells. An interpulse interval of 10 seconds allowed the channel recovery from inactivation, and achieved stable current recordings. To record sodium (Na^+) currents in DRG neurons, the external solution used the modified Krebs solution specified above. The internal solution was composed (in mM) of 120 CsF, 10 HEPES, 11 EGTA, 1 CaCl2, 1 MgCl2, 10 TEA-Cl, 4 MgATP and 0.3 MgGTP (pH 7.3-7.4 adjusted with CsOH). […] To record potassium currents in DRG neurons, the external solution used the modified Kreb's solution specified above. The internal solution was composed (in mM) of 65 KCl, 80 KF, 5 KOH, 10 EGTA, 2 MgATP (pH 7.3-7.4 adjusted with KOH). Recording electrodes were fabricated using a P-87 puller (Sutter Instrument Co., Novato, Calif., USA). The tip of resistance was 3-4 MQ in bath and the series resistance was less than 10 MΩ after whole cell configuration. All reagents were purchased from Sigma unless specified otherwise. Test compounds were usually applied via a rapid solution exchange system with 8 fine polyplastic tubings (100 μm, OD) glued in a holder in parallel and located closely to the recorded cells. The current responses were normalized to the control, percent inhibition was calculated and sigmoidal dose-response curves were generated using XLFit (IDBS, Surrey, UK) or Prism (GraphPad Software, La Jolla, Calif., US) to calculate IC50 values and Hill slopes using the following equation Y=Bottom+(Top−Bottom)/(1+10^((Log EC50−X)[…])).

DRG ion channels K+ = experiment: Potassium currents in DRG neurons, patch clamp; assay type: cell-based, rodent; settings: Table 2
Experimental: All the procedures related to animal handling were in strict accordance with NIH guidelines and IACUC approved protocols. Briefly, the spine was taken out and split into two halves from the middle line after sacrificing the mice by decapitation. […] The DRG neurons were minced with fine scissors and incubated at 35° C. for 50 min. […] Finally the cells were dispersed onto poly-1-ornithine-coated cover slips and maintained in a modified Krebs solution with streptomycin sulfate (0.2 mM), Penicillin G Sodium (0.3 mM), and Gentamycin (0.1 mM) at 21° C. […] All experiments were performed at room temperature (around 21° C.). Whole-cell currents were recorded using a MultiClamp 700B amplifier and analyzed offline with pCLAMP10.4 software (Molecular Devices, LLC, Sunnyvale Calif., USA). […] The internal solution was composed (in mM) of 125 CsCl, 10 HEPES (acid), 10 EGTA (ethylene glycol tetraacetic acid), 1 CaCl2, 1 MgCl2, 4 MgATP and 0.3 […] 7.3-7.4 adjusted with CsOH; osmolality verified as 295 mOsm/kg). Since the sodium ions were absent in the external solution, tetrodoctoxin was not needed. […] To record sodium (Na^+) currents in DRG neurons, the external solution used the modified Krebs solution specified above. […] To record potassium currents in DRG neurons, the external solution used the modified Kreb's solution specified above. The internal solution was composed (in mM) of 65 KCl, 80 KF, 5 KOH, 10 EGTA, 2 MgATP (pH 7.3-7.4 adjusted with KOH). Recording electrodes were fabricated using a P-87 puller (Sutter Instrument Co., Novato, Calif., USA). […] All reagents were purchased from Sigma unless specified otherwise. […] Selectivity among the three subtypes of the Cav3 T-type channel, and off-target effects on other key ion channels of the representative example compounds are presented in Table 2. Sodium and potassium channels in the rodent DRG neurons were recorded and tested as described above. The human ether-a-go-go-related gene (hERG) encodes the rapidly activating potassium channel (IKr) contributing to the repolarization of the cardiac action potential. The blockade of hERG can lead to a QT prolongation in the electrocardiogram known as long QT syndrome (Sanguinetti, et al., 1995). Therefore the representative example compounds in Table 2 were tested against the hERG channel.

T1 sequence (Q9P0X4 whole entry, species assumed): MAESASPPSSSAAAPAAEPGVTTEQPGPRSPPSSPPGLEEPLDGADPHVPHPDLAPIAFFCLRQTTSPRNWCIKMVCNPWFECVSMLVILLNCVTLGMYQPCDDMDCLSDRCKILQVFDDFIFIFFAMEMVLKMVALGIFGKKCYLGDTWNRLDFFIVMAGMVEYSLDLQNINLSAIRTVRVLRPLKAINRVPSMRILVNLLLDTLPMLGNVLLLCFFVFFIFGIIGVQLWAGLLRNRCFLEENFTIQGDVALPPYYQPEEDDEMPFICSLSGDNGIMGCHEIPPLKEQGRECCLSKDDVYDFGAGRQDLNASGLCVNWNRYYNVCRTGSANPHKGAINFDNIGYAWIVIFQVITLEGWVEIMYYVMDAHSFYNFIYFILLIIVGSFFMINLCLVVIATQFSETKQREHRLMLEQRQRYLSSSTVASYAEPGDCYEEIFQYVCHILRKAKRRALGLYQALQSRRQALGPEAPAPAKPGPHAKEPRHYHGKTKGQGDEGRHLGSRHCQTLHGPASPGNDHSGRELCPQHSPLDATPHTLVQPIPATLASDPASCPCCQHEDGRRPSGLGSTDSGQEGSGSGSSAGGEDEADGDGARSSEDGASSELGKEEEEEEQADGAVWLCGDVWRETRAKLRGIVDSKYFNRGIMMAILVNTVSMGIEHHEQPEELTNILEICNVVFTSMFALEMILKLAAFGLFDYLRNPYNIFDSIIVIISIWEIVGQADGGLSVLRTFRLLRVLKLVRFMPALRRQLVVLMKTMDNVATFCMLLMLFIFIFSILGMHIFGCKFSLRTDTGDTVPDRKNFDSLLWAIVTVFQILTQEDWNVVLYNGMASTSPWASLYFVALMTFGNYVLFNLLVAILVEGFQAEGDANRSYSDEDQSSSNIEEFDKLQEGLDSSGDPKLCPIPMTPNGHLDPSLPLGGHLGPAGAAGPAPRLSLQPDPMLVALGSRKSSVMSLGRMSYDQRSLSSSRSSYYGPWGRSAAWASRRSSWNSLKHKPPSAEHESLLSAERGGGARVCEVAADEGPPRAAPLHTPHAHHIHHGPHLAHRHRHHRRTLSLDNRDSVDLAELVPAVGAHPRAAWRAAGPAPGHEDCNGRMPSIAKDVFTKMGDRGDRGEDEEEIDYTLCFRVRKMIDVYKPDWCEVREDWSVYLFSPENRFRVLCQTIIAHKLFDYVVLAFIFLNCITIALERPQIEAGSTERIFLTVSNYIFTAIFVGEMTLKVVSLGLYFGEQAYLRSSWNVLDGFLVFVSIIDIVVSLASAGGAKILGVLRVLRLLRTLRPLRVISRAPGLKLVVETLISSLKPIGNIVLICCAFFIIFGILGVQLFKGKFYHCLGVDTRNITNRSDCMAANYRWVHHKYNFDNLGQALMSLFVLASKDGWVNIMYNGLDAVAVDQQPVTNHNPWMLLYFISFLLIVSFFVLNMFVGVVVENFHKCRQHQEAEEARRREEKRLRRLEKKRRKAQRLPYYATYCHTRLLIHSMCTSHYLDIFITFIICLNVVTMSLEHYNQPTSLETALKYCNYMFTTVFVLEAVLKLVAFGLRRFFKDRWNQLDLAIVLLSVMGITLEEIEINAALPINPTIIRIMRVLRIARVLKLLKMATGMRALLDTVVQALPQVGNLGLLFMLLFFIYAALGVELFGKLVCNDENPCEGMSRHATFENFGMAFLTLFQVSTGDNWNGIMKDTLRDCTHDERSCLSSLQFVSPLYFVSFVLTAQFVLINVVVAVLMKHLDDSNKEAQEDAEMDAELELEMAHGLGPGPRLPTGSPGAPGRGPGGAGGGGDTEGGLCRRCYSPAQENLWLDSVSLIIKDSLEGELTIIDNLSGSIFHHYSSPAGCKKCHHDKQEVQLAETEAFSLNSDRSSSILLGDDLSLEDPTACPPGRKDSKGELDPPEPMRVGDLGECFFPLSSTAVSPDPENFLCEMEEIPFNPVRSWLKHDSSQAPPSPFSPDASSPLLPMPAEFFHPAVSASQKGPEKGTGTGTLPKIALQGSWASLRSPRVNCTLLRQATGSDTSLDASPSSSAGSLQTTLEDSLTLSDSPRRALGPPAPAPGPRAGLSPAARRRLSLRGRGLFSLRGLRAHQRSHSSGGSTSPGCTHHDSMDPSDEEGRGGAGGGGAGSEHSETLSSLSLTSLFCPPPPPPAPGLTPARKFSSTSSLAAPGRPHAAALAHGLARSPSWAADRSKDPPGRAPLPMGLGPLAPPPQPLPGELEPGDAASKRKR

Row | SMILES | PTZ-induced Fatality (%) ([1]; 30 mg/kg I.P. 60 min before PTZ 40 mg/kg I.P., death within 20 min) | latency to seizures [1] | fatality latency [1] | fatality rate [1] | IC50 (Cav3.3) | IC50 (DRG ion channels K+)
1 | CC(C)(C)CCN1C[C@@H]2[C@@H](CNC(=O)c3cc(Cl)cc(Cl)c3)[C@@H]2C1 [ML218, 3,5-Dichloro-N-[[(1α,5α,6-exo,6α)-3-(3,3-dimethylbutyl)-3-azabicyclo[3.1.0]hex-6-yl]methyl]benzamide, reference compound] | 50% | significantly prolonged latencies to seizures | prolonged fatality latencies | decreased the fatality rate | 270 nM | 79700 nM
2 | CC(C)(C)CCN1CCC2(CC1)CC2NC(=O)c1cc(F)cc(Cl)c1 (centres unmarked) [Example 28, 3-Chloro-N-(6-(3,3-dimethylbutyl)-6-azaspiro[2.5]octan-1-yl)-5-fluorobenzamide] | – | significantly prolonged latencies to seizures | prolonged fatality latencies | decreased the fatality rate | 210 nM | ~100000 nM
3 | CC(C)(C)NC(=O)CN1CCC2(CC1)C[C@H]2NC(=O)c1cc(C(F)(F)F)cc(C(F)(F)F)c1 (single isomer, unassigned) [Example 144, ((R)—N-(6-(2-(tert-butylamino)-2-oxoethyl)-6-azaspiro[2.5]octan-1-yl)-3,5-bis(trifluoromethyl)benzamide or (S)—N-(6-(2-(tert-butylamino)-2-oxoethyl)-6-azaspiro[2.5]octan-1-yl)-3,5-bis(trifluoromethyl)benzamide] | – | significantly prolonged latencies to seizures | prolonged fatality latencies | decreased the fatality rate | 250 nM | > 30000 nM
4 | CC(C)(C)NC(=O)CN1CCC2(CC1)C[C@H]2NC(=O)c1cc(F)cc(Cl)c1 (single isomer, unassigned) [Example 129, (R)—N-(6-(2-(tert-Butylamino)-2-oxoethyl)-6-azaspiro[2.5]octan-1-yl)-3-chloro-5-fluorobenzamide or (S)—N-(6-(2-(tert-Butylamino)-2-oxoethyl)-6-azaspiro[2.5]octan-1-yl)-3-chloro-5-fluorobenzamide] | – | significantly prolonged latencies to seizures | prolonged fatality latencies | decreased the fatality rate | 1630 nM | > 100000 nM
5 | CC(C)(C)NC(=O)CN1CCC2(CC1)CC2NC(=O)c1cc(F)cc(Cl)c1 (centres unmarked) [Example 17, N-(6-(2-(tert-Butylamino)-2-oxoethyl)-6-azaspiro[2.5]octan-1-yl)-3-chloro-5-fluorobenzamide] | – | significantly prolonged latencies to seizures | prolonged fatality latencies | decreased the fatality rate | 290 nM | > 100000 nM
